In assay [1] the target is T1, VHL (VBC complex), Hyp site (Homo sapiens, UniProt P40337).
T1 construct: equimolar complex of pVHL54-213, eloB1-104 and; made in house; host or cells: E. coli
Description: 19F NMR competition experiment, displacement of spy molecule 19. It counts as binding. As to conditions: 19 at 50 μM, VHL at 1.0 μM. How it is done: Lastly, the utility and scope of using spy molecule 19 to quantify binding of competitors across a wide range of affinities was evaluated (Fig. 5). Five compounds were titrated against 19 at 50 μM and VHL at 1.0 μM. In all cases the displacement of the spy molecule was concentration-dependent and the Ki (inhibition constant) values were derived from the respective IC50 using a competitive binding model.[12] The measured binding affinities compared remarkably well with the respective values obtained by SPR across 4-log units. The same experiment was attempted with spy molecules 6 and 11 under the same conditions, and in these cases, the assay could not differentiate the binders as efficiently (ESI, ^† Fig. S2–S4), since this would require higher protein concentration.
6. Competition experiments by 19F NMR
As full measurements of R2 would be very time consuming, the competition experiments were performed using a single 19F CPMG experiment (decoupled) per sample with a fixed CPMG delay. To determine the best CPMG delay for a given spy molecule and assay condition, the procedure described in Figure S5 was developed based on the transverse relaxation rate equations.[7] By knowing the relaxation rates of the spy molecule free in solution and in presence of protein, the CPMG delay where the difference between the NMR peaks is maximum is hereon referred as dmax. The dmax for all the conditions tested for each spy molecule can be found in section 8, together with the respective values of R2 and C2.
Method for selecting the best CPMG delay for competition experiments. With the transverse relaxation rates of the spy molecule free in solution (R2F, resulting in the blue plot) and bound to protein (R2B, resulting in the red plot), the difference between the two curves is described by I(t)D (cyan curve). To obtain dmax, the delay where the difference curve reaches its maximum, the first derivative of I(t)D was obtained and equalled to 0, subsequently isolating t (CPMG filter). […]

In assay [2] the target is T2, VHL (VBC complex: pVHL54-213, eloB1-104, eloC17-112) (Homo sapiens, UniProt P40337).
T2 construct: equimolar complex of pVHL54-213, eloB1-104 and; made in house; host or cells: E. coli
Put plainly: Surface plasmon resonance (SPR) steady-state binding to immobilised biotinylated AviVBC. On the procedure:
The KD of each compound to VHL was determined by surface plasmon resonance (SPR) experiments.
3. Protein expression, purification and biotinylation
The VHL E3 ligase is a multi-protein complex composed of five proteins: VHL protein (pVHL), elongin B (eloB), elongin C (eloC), Cullin-2 (Cul2) and Ring-box protein 1 (Rbx1).[3] Since the compounds developed in this work bind solely to the VHL protein, the VBC complex (equimolar complex of pVHL54-213, eloB1-104 and eloC17-112) was used in all experiments, as it can be readily expressed in E. coli with high yields,[4] while the full E3 ligase would require baculovirus-insect cells expression system.[5] The expression and purification of VBC was performed as described previously by our group[2] and employed directly in all NMR experiments.
For the surface plasmon resonance (SPR) experiments, a VBC complex containing an AviTagTM in the N-terminus of eloB (AviVBC) was purified using the same procedure described for VBC. The modified eloB/eloC expression plasmid was previously developed in-house by Dr. Michael Roy and kindly shared. The AviVBC complex was site-specifically biotinylated in the AviTag using the GST-BirA method previously described by […]
4. Surface plasmon resonance experiments
The SPR experiments were performed with a Biacore T200 instrument (GE Healthcare). All measurements were performed at 20 °C with buffer containing 10 mM HEPES, pH 7.5, 150 mM NaCl, 1 mM TCEP, 0.005% (v/v) Tween® 20 and 2% (v/v) dimethyl sulfoxide (DMSO). Biotinylated AviVBC (~0.5 μM) was immobilised at 22 °C onto a Series S sensor chip SA (GE Heathcare) to levels of approximately 3500-4000 response units […]
Solutions of each spy molecule were prepared in buffer at concentrations based on previous structure-activity relationship studies of VHL ligands (K D expected in the nanomolar range for structures like spy molecules 16 and 22, or in the milimolar range for spy molecules similar to 1 and 9). From this first screen, the binding affinities were roughly estimated using the Biacore T200 evaluation software (GE Healthcare), then measurements were repeated using concentrations above and below the KD obtained in the first round to generate better curves for fitting the data accurately. Contact and dissociation times varied across the different compounds tested, but in […]
dissociated from the surface in less than sixty seconds.
Data analysis was performed using the steady state responses of the double-referenced sensorgrams (raw data subtracted from blank and reference surface injections) obtained for each concentration tested. These responses were plotted against the respective concentrations and the data fitted to a 1: 1 binding model u sing the Biacore T200 evaluation software and the following equation: […]
Where Req is the steady-state response at a given concentration C. Deviations in Req were corrected by adding an ‘offset’ term to the equation. KD is the dissociation constant to be determined and RMAX is the maximum response expected for a given compound according to the equation below:
Where n is the stoichiometry of the interaction ( in this case, n = 1) and RProtein is the immobilization level of protein. MWCompound and MWProtein are the molecular weights of compound and protein, respectively. Sensorgrams and fitting parameters for all spy molecules can be found in section 7.
For orientation: SPR reads the build-up and loss of mass on a sensor chip optically.

Where [3] appears, read: SPR steady-state fit, supplement section 7, read-out: KD (Biacore T200 fit).
The mark [4] stands for this setting: SPR, 20 °C, steady-state 1:1 fit, footnote b values fitted because RMAX was not reached experimentally, read-out: K D, SPR.

Read-outs that look alike come from different tables or passages of the source.

Turning to `CC(C)(C)CC(=O)N1C[C@H](O)C[C@H]1C(=O)NCc1ccc(Br)c(C(F)(F)F)c1` [Compound 3], the “Displacement of spy molecule 19” value in assay [1] is “concentration dependent”. In addition, the Kd in assay [2] (setting [3]) stood at 407 µM; in assay [2] (setting [4]), 407 ± 5 µM.

For `CC(=O)N1C[C@H](O)C[C@H]1C(=O)NCc1ccc(Br)cc1C(F)(F)F` [Compound 10], the “Displacement of spy molecule 19” value in assay [1] is listed as “concentration dependent”. In assay [2] (setting [4]), the Kd is 1350 ± 94 µM.

Regarding `CC(=O)NC(C(=O)N1CC(O)CC1C(=O)NCc1ccc(Br)cc1C(F)(F)F)C(C)(C)C` (centres unmarked) [Compound 12], the “Displacement of spy molecule 19” value in assay [1] was “concentration dependent”. In assay [2] (SPR), the “binding kinetics / dissociation rates by SPR” value is reported as “too high to be determined accurately”. Further, the Kd in assay [2] (setting [3]) is 1.14 µM; in assay [2] (setting [4]), 1.14 ± 0.12 µM.

Regarding `O=C(NCc1ccc(Br)cc1)C1CC(O)CN1C(=O)CC(F)(F)F` (centres unmarked) [Compound 19], the values for the Kd in assay [2] (setting [3]) and in assay [2] (setting [4]) were 145 µM and 145 ± 29 µM, respectively.

For the origin of these results see PMC6369734, “Spy vs. spy: selecting the best reporter for ^19F NMR competition experiments” (Chemical Communications (Cambridge, England), 2019).
